# How the values were obtained:
# [1] = target: T1, bc1 complex (complex III) (Eikenella corrodens, UniProt V7IIL5); assay: polarographic O2 uptake (Clark electrode), succinate oxidase of membranes; type: biochemical; conditions: succinate as substrate, 34 °C; read-out is the whole succinate respiration
# T1 construct: gene HMPREF1177_00380; native complex in isolated membrane particles, not purified; with Ubiquinol-cytochrome c reductase iron-sulfur subunit; Cytochrome c1
# T1 sequence (V7IIL5 1-530): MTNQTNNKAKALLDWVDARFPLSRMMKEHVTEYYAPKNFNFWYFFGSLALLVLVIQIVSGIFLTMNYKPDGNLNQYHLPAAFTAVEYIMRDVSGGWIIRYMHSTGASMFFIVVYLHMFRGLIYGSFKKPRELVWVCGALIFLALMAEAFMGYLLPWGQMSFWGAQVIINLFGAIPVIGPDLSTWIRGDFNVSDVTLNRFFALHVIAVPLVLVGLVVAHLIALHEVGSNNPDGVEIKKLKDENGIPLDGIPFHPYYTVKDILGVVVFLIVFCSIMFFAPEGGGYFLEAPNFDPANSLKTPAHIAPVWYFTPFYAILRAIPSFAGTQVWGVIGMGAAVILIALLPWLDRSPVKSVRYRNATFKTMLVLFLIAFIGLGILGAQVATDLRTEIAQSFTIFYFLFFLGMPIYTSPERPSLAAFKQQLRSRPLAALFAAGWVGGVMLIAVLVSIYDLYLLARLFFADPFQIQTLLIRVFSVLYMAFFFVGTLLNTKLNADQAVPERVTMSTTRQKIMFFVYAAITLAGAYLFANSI
# T1 sequence (V7IHH9 1-197 partner): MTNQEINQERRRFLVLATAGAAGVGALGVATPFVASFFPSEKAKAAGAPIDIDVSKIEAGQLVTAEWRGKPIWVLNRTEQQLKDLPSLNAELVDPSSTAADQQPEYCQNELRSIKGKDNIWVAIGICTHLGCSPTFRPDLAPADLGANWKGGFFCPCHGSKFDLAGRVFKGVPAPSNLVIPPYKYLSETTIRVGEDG
# [2] = target: T2, dissimilatory nitrate reductase, Nar (Eikenella corrodens, UniProt V7IBI8); assay: oxidation of reduced methyl viologen at […] nm, membranes; type: biochemical; conditions: 1 mM dithionite-reduced methyl viologen, 2 mM nitrate, pH 7.4, anaerobic
# T2 construct: gene HMPREF1177_02096; with Respiratory nitrate reductase beta subunit; Respiratory nitrate reductase gamma subunit
# T2 sequence (V7IA22 entry or part of it): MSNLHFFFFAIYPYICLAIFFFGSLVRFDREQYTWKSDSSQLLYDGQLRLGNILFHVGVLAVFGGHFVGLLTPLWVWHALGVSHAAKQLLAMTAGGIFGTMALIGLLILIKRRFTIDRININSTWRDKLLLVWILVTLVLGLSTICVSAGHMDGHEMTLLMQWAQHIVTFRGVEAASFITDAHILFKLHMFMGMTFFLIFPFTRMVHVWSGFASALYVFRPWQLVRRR
# T2 sequence (V7IBP6 entry or part of it, further chain): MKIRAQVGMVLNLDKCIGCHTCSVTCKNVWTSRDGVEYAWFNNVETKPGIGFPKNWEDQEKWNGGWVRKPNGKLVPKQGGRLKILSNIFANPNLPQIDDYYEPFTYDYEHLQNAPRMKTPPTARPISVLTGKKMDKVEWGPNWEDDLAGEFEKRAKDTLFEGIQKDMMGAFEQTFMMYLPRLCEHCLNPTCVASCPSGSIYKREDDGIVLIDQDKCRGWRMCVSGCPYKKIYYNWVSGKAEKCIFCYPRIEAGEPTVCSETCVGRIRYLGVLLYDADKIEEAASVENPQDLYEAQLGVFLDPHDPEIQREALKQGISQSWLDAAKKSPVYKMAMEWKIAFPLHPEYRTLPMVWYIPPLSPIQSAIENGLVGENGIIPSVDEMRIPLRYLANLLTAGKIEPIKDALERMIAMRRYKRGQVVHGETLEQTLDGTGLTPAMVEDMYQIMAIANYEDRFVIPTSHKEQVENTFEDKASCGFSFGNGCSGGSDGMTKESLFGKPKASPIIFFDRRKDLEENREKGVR
# T2 sequence (V7IBI8 entry or part of it): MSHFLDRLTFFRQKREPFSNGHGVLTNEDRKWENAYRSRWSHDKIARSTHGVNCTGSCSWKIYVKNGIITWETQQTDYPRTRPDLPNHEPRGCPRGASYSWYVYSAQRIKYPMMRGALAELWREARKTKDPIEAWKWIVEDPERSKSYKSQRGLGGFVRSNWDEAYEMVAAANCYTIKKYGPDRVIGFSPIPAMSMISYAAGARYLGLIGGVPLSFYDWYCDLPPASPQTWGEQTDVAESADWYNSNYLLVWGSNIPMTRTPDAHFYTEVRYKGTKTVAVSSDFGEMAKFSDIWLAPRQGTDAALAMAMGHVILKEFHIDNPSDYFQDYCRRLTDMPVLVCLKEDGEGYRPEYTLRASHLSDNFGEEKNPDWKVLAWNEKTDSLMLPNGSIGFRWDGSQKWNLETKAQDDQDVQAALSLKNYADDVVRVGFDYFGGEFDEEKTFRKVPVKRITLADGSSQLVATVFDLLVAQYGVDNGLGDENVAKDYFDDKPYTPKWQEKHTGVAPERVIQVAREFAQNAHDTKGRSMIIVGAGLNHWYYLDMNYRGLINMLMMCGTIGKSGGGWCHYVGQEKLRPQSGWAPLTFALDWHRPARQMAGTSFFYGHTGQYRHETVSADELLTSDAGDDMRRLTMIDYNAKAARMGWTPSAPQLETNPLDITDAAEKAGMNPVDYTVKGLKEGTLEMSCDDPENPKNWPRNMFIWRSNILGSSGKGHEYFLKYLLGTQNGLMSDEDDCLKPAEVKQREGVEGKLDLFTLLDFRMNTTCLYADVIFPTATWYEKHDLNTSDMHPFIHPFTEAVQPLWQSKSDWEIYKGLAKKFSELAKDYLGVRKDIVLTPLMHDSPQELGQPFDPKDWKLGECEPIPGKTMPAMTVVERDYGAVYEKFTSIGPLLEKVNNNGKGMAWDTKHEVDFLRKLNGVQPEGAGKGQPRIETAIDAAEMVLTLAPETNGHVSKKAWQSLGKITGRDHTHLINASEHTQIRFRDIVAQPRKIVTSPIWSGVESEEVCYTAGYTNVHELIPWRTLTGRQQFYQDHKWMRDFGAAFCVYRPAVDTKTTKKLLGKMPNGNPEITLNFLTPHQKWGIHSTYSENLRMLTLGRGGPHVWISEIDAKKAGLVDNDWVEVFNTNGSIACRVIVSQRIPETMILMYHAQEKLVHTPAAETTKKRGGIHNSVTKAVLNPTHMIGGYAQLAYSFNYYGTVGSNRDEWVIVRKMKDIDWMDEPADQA
compound,measurement,setting,value
"CCCCCCCc1cc(O)c2ccccc2[n+]1[O-] [HQNO, 2-heptyl-4-hydroxyquinoline-N-oxide]",IC50,[1],40 µM
antimycin A3,IC50,[1],20 µM
O=[N+]([O-])O [nitrate],"oxidation of reduced methyl viologen at 600 nm, membranes",[2],The reaction was started by the injection of an anaerobic solution of potassium nitrate

# Reference: paper PMC8076288, “Effect of respiratory inhibitors and quinone analogues on the aerobic electron transport system of Eikenella corrodens” (Scientific Reports, 2021)
